For orientation: EC50 means the concentration giving half of the maximal effect.

In patent US20250092030A1, “ENHANCERS OF PARTICULATE GUANYLYL CYCLASE RECEPTOR A” (Mayo Foundation for Medical Education and Research, priority 2023, published 2025) one finds Emax, EC50 and Max efficacy data, which are given here for 49 compounds.

The target in this test is T1, particulate guanylyl cyclase receptor A (pGC-A) (Homo sapiens, UniProt P16066).
T1 construct: expressed in transfected cells; host or cells: HEK293
T1 sequence (P16066 33-1061): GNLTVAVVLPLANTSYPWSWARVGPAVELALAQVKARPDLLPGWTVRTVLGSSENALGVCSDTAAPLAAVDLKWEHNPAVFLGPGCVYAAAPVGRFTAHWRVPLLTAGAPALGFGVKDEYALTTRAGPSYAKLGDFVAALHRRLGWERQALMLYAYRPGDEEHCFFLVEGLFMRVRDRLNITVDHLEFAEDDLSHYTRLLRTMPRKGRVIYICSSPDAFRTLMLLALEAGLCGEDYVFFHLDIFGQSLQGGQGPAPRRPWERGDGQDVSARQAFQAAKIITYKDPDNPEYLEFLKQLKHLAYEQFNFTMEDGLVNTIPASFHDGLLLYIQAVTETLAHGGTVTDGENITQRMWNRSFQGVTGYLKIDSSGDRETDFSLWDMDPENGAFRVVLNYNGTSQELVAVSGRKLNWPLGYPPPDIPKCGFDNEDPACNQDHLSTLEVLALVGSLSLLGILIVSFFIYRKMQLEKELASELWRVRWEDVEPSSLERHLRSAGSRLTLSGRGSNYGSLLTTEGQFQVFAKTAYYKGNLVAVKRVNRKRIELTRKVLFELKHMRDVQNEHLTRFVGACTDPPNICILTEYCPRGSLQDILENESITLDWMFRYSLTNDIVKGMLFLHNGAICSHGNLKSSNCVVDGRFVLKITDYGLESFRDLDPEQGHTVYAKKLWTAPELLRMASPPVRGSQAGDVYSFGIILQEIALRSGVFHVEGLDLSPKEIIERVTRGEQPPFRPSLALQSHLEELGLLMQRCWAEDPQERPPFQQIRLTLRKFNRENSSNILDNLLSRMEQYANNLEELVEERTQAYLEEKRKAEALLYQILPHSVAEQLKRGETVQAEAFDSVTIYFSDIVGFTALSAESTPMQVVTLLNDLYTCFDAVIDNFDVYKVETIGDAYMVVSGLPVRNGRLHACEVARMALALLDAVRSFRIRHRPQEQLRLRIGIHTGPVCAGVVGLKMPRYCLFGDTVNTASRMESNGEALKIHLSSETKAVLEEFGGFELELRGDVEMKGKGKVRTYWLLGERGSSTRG
T1 sequence (P01160 124-151 partner limits assumed): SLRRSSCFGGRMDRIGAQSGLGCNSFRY
Description: cGMP production by HTRF in HEK293 cells overexpressing pGC-A, with ANP. It is filed as cell-based. Particulars: for Emax: HEK293, HEK293 cells overexpressing pGC-A, read-out: Max efficacy; for EC50: test compound plus EC20 concentration of ANP, cGMP by HTRF. The text has this: Assay: Generally, the assay monitors the production of cGMP, the second messenger generated by pGC-A, by Time-Resolved Florescence (HTRF) in HEK293 cells overexpressing the pGC-A. pGC-A suspension cells were stimulated in the presence of the test compound and an EC20 concentration of ANP. The quantity of cGMP was detected by competitive immunoassay using Eu^3+ cryptate-labeled anti-cGMP and d2-labeled cGMP and normalized to maximal amount produced by an EC80 concentration of ANP. Compound EC50 values were determined in the primary assay, in the presence or absence of ANP, to determine mode of action as positive modulators and tested for selectivity in the same assay platform but in HEK cells overexpressing the particulate guanylyl cyclase B receptor (pGC-B), of which CNP is the endogenous ligand.
Assay details: 20 nL of 10 μM test compound in DMSO was added to columns 5-48 of 1536 well white high base screening plates (Corning, New York, NY) cells using 550 ECHO acoustic dispenser (Labcyte, San Jose, CA). Alpha-atrial natriuretic peptide (ANP) (Phoenix Pharmaceutics) was prepared as stock aliquots at 5 μM in PBS with 0.1% BSA. An approximate […] concentration of ANP ([…]) in assay buffer (HBSS containing 5 mM HEPES and 0.05% BSA) was added to columns 3-48 at a volume of 1 μL. Assay buffer only was added to column 1 and assay buffer containing a saturating concentration of ANP (5 nM) was added to column 2. HEK293 cells overexpressing GC-A were resuspended in assay media (OptimMem media containing 2% Heat-inactivated Fetal bovine serum and L-glutamine) at a density of 6×10^5 cells/mL and 2 μL were plated in screening plates (1200 cells/well) in suspension using a Bioraptr 2. Plates were spun at 1000 rpm for 1 min and incubated for 30 min at room temperature. 1.5 μL d2-labeled cGMP followed by 1.5 μL Eu^3+ cryptate-labeled anti-cGMP cGMP detection kit (CiBio; #62GM2PEC) prepared according to manufacturer's protocol were added to all wells using a Bioraptr 2 and TR-FRET signal was detected on an EnVision detector (PerkinElmer). Wells treated with 0.3% DMSO only serve as blank controls (column 1); wells treated with 0.3% DMSO and 5 nM ANP (columns 2) serve as positive controls and wells treated with 0.3% DMSO and […] ANP (columns 3-4) serve as negative controls.

The mark [1] stands for this setting: cGMP normalized to maximal amount produced by an EC80 concentration of ANP.
Where [2] appears, read: HEK293 cells overexpressing pGC-A.

The structures appear in SMILES notation. Where “and” joins values, the source holds several entries; their conditions need not be identical. Equal entries are not always repeated. Where only a bound is given, the exact number is not on record here.

Take `O=C(Nc1nc2c(Cl)cc(F)cc2s1)C1CCCN(C2CNC2)C1` (centres unmarked) [compound 136]: under setting [1], the Emax was 46%. In addition, under setting [2], the EC50 stood at 0.3 µM. For `CCC(C)N1CC(N2CCCC(C(=O)Nc3nc4c(Cl)cc(F)cc4s3)C2)C1` (centres unmarked) [compound 137], in that order: 80% and 0.08 µM. The like results for `CC(=O)N1CC(N2CCCC(C(=O)Nc3nc4c(Cl)cc(F)cc4s3)C2)C1` (centres unmarked) [compound 138] were, in that order, 46% and 1.1 µM. The like results for `COC(=O)CN1CC(N2CCCC(C(=O)Nc3nc4c(Cl)cc(F)cc4s3)C2)C1` (centres unmarked) [compound 139] were, in that order, 79% and 0.2 µM. Turning to `CN(C)CCN1CCCC(C(=O)Nc2nc(-c3ccccc3)cs2)C1` (centres unmarked) [compound 144], the EC50 under setting [2] was more than 5 µM. Still for that read-out and setting: the result for `CN(C)CCN1CCCC(C(=O)Nc2nc(-c3ccccc3F)cs2)C1` (centres unmarked) [compound 145] reads more than 5 µM; that for `CN(C)CCN1CCCC(C(=O)Nc2nc(-c3cccc(F)c3)cs2)C1` (centres unmarked) [compound 146], more than 5 µM; that for `CN(C)CCN1CCCC(C(=O)Nc2nc(-c3ccc(F)cc3)cs2)C1` (centres unmarked) [compound 147], more than 5 µM.

In the case of `CN(C)CCN1CCCC(C(=O)Nc2nc(-c3ccccc3Cl)cs2)C1` (centres unmarked) [compound 148], the EC50 under setting [2] is more than 5 µM. Take `CN(C)CCN1CCCC(C(=O)Nc2nc(-c3cccc(Cl)c3)cs2)C1` (centres unmarked) [compound 149]: the EC50 under setting [2] was more than 5 µM. Still for that read-out and setting: the result for `CN(C)CCN1CCCC(C(=O)Nc2nc(-c3ccc(Cl)cc3)cs2)C1` (centres unmarked) [compound 150] reads more than 5 µM; that for `Cc1ccccc1-c1csc(NC(=O)C2CCCN(CCN(C)C)C2)n1` (centres unmarked) [compound 151], more than 5 µM.

Consider `Cc1cccc(-c2csc(NC(=O)C3CCCN(CCN(C)C)C3)n2)c1` (centres unmarked) [compound 152], for which, under setting [2], the EC50 is more than 5 µM.

With `Cc1ccc(-c2csc(NC(=O)C3CCCN(CCN(C)C)C3)n2)cc1` (centres unmarked) [compound 153], the concentration for a half-maximal effect (EC50) under setting [2] was more than 5 µM. Still for that read-out and setting: the same measure for `COc1ccccc1-c1csc(NC(=O)C2CCCN(CCN(C)C)C2)n1` (centres unmarked) [compound 154]: more than 5 µM; for `COc1cccc(-c2csc(NC(=O)C3CCCN(CCN(C)C)C3)n2)c1` (centres unmarked) [compound 155]: more than 5 µM; for `COc1ccc(-c2csc(NC(=O)C3CCCN(CCN(C)C)C3)n2)cc1` (centres unmarked) [compound 156]: more than 5 µM. Still for that read-out and setting: the result for `COCCOc1ccc(-c2csc(NC(=O)C3CCCN(CCN(C)C)C3)n2)cc1` (centres unmarked) [compound 160] reads more than 5 µM; that for `CN(C)CCN1CCCC(C(=O)Nc2ncc(-c3ccccc3)s2)C1` (centres unmarked) [compound 169], more than 5 µM. On the same count and under the same terms, the same measure for `CN(C)CCN1CCCC(C(=O)Nc2nc3c(F)cc(F)cc3c(=O)[nH]2)C1` (centres unmarked) [compound 182]: more than 5 µM; for `O=C(Nc1nc2c(F)cc(F)cc2c(=O)[nH]1)C1CCCNC1` (centres unmarked) [compound 183]: more than 5 µM. Turning to `CN(C)CCN1CCCC(C(=O)Nc2ccc3cccc(F)c3n2)C1` (centres unmarked) [compound 191], the concentration for a half-maximal effect (EC50) under setting [2] was more than 5 µM. Still for that read-out and setting: the result for `O=C(Nc1nc2c(F)cc(F)cc2s1)c1ccccc1` [compound 199] reads more than 10 µM. Still for that read-out and setting: the result for `O=C(Nc1nc2c(F)cc(F)cc2s1)c1ccccc1Cl` [compound 200] reads more than 10 µM; that for `O=C(Nc1nc2c(F)cc(F)cc2s1)c1cccc(Cl)c1` [compound 201], more than 10 µM. Still for that read-out and setting: the result for `O=C(Nc1nc2c(F)cc(F)cc2s1)c1ccc(Cl)cc1` [compound 202] reads more than 10 µM; that for `COc1ccccc1C(=O)Nc1nc2c(F)cc(F)cc2s1` [compound 203], more than 10 µM; that for `COc1cccc(C(=O)Nc2nc3c(F)cc(F)cc3s2)c1` [compound 204], more than 10 µM. Regarding `COc1ccc(C(=O)Nc2nc3c(F)cc(F)cc3s2)cc1` [compound 205], under setting [2], the concentration for a half-maximal effect (EC50) was more than 10 µM. On the same count and under the same terms, the result for `O=C(Nc1nc2c(F)cc(F)cc2s1)c1ccc(-c2ccccc2)cc1` [compound 206] reads more than 10 µM. Same read-out and setting: the result for `CN(C)CCN[C@@H]1CCC[C@H](C(=O)Nc2nc3c(F)cc(F)cc3s2)C1` [compound 207] reads more than 5 µM. In the case of `N[C@@H]1CCCC(C(=O)Nc2nc3c(F)cc(F)cc3s2)C1` (some centres unmarked) [compound 208], the Emax under setting [1] was found to be 87%.

Regarding `N[C@@H]1CCC[C@H](C(=O)Nc2nc3c(F)cc(F)cc3s2)C1` [compound 208], the concentration giving a half-maximal response (EC50) under setting [2] was 0.7 µM. Same read-out and setting: the same measure for `CN(C)CCN[C@H]1CCC[C@H](C(=O)Nc2nc3c(F)cc(F)cc3s2)C1` [compound 209]: more than 5 µM.

As for `CN(C)CCN[C@@H]1CCCCC1C(=O)Nc1nc2c(F)cc(F)cc2s1` (some centres unmarked) [compound 211], under setting [1], the Emax amounted to 101%. For the compound `CN(C)CCN[C@@H]1CCCC[C@@H]1C(=O)Nc1nc2c(F)cc(F)cc2s1` [compound 211], the half-maximal effective concentration (EC50) under setting [2] worked out at 1.53 µM.

Take `CN(C)CCC1CCCC(C(=O)Nc2nc3c(Cl)cc(F)cc3s2)C1` (centres unmarked) [compound 215]: under setting [1], the Emax was found to be 78%. For the same compound, under setting [2], the concentration giving a half-maximal response (EC50) worked out at 0.9 µM.

With `CN(C)CCN1CCCC(C(=O)Nc2nc3ccccc3s2)C1` (centres unmarked) [compound 216], the EC50 under setting [2] is more than 10 µM. Still for that read-out and setting: the same measure for `CN(C)CCN1CCCC(NC(=O)c2nc3c(F)cc(F)cc3s2)C1` (centres unmarked) [compound 217]: more than 10 µM. For the compound `CN(C)C1CCN(CC(=O)Nc2nc3c(F)cc(F)cc3s2)CC1` [compound 219], the Emax under setting [1] is 91%. In addition, the half-maximal effective concentration (EC50) under setting [2] was determined as 1.5 µM. As for `CN(C)CCC1CCN(c2nc3c(F)cc(F)cc3s2)C(=O)C1` (centres unmarked) [compound 220], under setting [2], the EC50 is more than 5 µM. Regarding `O=C1CCC(C(=O)Nc2nc3c(F)cc(F)cc3s2)CN1` (centres unmarked) [compound 222], under setting [1], the Emax is 58%. For the same compound, the EC50 under setting [2] is 1.01 µM. For `CN(C)CCN1CCCC(C(=O)Nc2nc3c(F)cccc3s2)C1` (centres unmarked) [compound 224], in that order: 105% and 5.8 µM. For `CN(C)CCN1CCCC(C(=O)Nc2nc3c(Cl)cccc3s2)C1` (centres unmarked) [compound 225], in that order: 97% and 0.36 µM. For the compound `CN(C)CCN1CCCC(C(=O)Nc2nc3c(Br)cccc3s2)C1` (centres unmarked) [compound 226], the Max efficacy (HEK293 cells overexpressing pGC-A, cGMP normalized to maximal amount produced by an EC80 concentration of ANP) is 62% and 87%. In addition, under setting [2], the EC50 was 0.16 µM and 0.9 µM. For `CN(C)CCN1CCC(C(=O)Nc2nc3c(F)cc(F)cc3s2)CC1` [compound 227], the Emax under setting [1] came out at 93%. Further, the half-maximal effective concentration (EC50) under setting [2] is 1.5 µM. Consider `CN(C)CCN1CCCC(C)(C(=O)Nc2nc3c(F)cc(F)cc3s2)C1` (centres unmarked) [compound 228], for which the EC50 under setting [2] is more than 5 µM. On to `CN(C)C(=O)CN1CCCC(C(=O)Nc2nc3c(F)cc(F)cc3s2)C1` (centres unmarked) [compound 229], for which the Emax under setting [1] came to 91%. In addition, the half-maximal effective concentration (EC50) under setting [2] is 1.9 µM.

As for `CN(C)CC(=O)N1CCCC(C(=O)Nc2nc3c(F)cc(F)cc3s2)C1` (centres unmarked) [compound 230], the Emax under setting [1] is 105%. Besides, the half-maximal effective concentration (EC50) under setting [2] worked out at 0.7 µM.
